Test results: US7488740B2, “Substituted quinolin-4-ylamine analogues” (Neurogen Corporation, priority 2003, dated 2009)
pIC50: −log10 of the molar value.

Molecular target: T1, human capsaicin receptor (Homo sapiens, UniProt Q8NER1)
T1 construct: A cDNA encoding full length human capsaicin receptor recited in U.S. Pat. No. 6,482,611 was subcloned in the plasmid pBK-CMV; expressed in transfected cells
Test: Calcium mobilization assay (Example 6)
Assay type: cell-based
Settings: concentration required to provide a 50% decrease in the fluorescence response of cells exposed to one IC50 of capsaicin
Description: Human embryonic kidney (HEK293) cells were transfected with the pBK-CMV expression construct encoding the full length human capsaicin receptor using standard methods. The transfected cells were selected for two weeks in media containing G418 (400 μg/ml) to obtain a pool of stably transfected cells. Independent clones were isolated from this pool by limiting dilution to obtain clonal stable cell lines for use in subsequent experiments.
Cells transfected with expression plasmids (as described in Example 4) and thereby expressing human capsaicin receptor are seeded and grown to 70-90% confluency in FALCON black-walled, clear-bottomed 96-well plates (#3904, BECTON-DICKINSON, Franklin Lakes, N.J.). The culture medium is emptied from the 96 well plates and FLUO-3 AM calcium sensitive dye (Molecular Probes, Eugene, Oreg.) is added to each well (dye solution: 1 mg FLUO-3 AM, 440 μL DMSO and 440 μl 20% pluronic acid in DMSO, diluted 1:250 in Krebs-Ringer HEPES (KRH) buffer (25 mM HEPES, 5 mM KCl, 0.96 mM NaH2PO4, 1 mM MgSO4, 2 mM CaCl2, 5 mM glucose, 1 mM probenecid, pH 7.4), 50 μl diluted solution per well). Plates are covered with aluminum foil and incubated at 37° C. for 1-2 hours in an environment containing 5% CO2. After the incubation, the dye is emptied from the plates, and the cells are washed once with KRH buffer, and, resuspended in KRH buffer.
Agonist (e.g., olvanil, capsaicin, or RTX)-induced calcium mobilization is monitored using either FLUOROSKAN ASCENT (Labsystems, Franklin, Mass.) or FLIPR (fluorometric imaging plate reader system, Molecular Devices, Sunnyvale, Calif.) instruments. Varying concentrations of the antagonists ruthenium red or capsazepine (RBI; Natick, Mass.) are added to cells concurrently with agonist (e.g., 25-50 nM capsaicin). For agonist-induced calcium responses, data obtained between 30 and 60 seconds after agonist application are used to generate the IC50 values. KALEIDAGRAPH software (Synergy Software, Reading, Pa.) is used to fit the data to the equation: y=a*(1/(1+(b/x)^c)) to determine the IC50 for the response. In this equation, y is the maximum fluorescence signal, x is the concentration of the agonist or antagonist, a is the Emax, b corresponds to the IC50 value and c is the Hill coefficient.
To measure the ability of a test compound to antagonize (inhibit) the response of cells expressing capsaicin receptors to capsaicin or other vanilloid agonist, the IC50 of capsaicin is first determined. An additional 20 μl of KRH buffer and 1 μl DMSO is added to each well of cells, prepared as described above. 100 μl capsaicin in KRH buffer is automatically transferred by the FLIPR instrument to each well. An 8-point concentration response curve, with final capsaicin concentrations of 1 nM to 3 μM, is used to determine capsaicin IC50.
Test compounds are dissolved in DMSO, diluted in 20 μl KRH buffer so that the final concentration of test compounds in the assay well is between 1 μM and 5 μM, and added to cells prepared as described above. The 96 well plates containing prepared cells and test compounds are incubated in the dark, at room temperature for 0.5 to 6 hours. It is important that the incubation not continue beyond 6 hours. Just prior to determining the fluorescence response, 100 μl capsaicin in KRH buffer at twice the IC50 concentration determined from the concentration response curve is automatically added by the FLIPR instrument to each well of the 96 well plate for a final sample volume of 200 μl and a final capsaicin concentration equal to the IC50. The final concentration of test compounds in the assay wells is between 1 μM and 5 μM. […] Antagonists of the capsaicin receptor decrease this response by at least about 20%, preferably by at least about 50%, and most preferably by at least 80% as compared to matched control. The concentration of antagonist required to provide a 50% decrease is the IC50 for the antagonist, and is preferably below 1 micromolar, 100 nanomolar, 10 nanomolar or 1 nanomolar. […]

T1 sequence (Q8NER1 whole entry): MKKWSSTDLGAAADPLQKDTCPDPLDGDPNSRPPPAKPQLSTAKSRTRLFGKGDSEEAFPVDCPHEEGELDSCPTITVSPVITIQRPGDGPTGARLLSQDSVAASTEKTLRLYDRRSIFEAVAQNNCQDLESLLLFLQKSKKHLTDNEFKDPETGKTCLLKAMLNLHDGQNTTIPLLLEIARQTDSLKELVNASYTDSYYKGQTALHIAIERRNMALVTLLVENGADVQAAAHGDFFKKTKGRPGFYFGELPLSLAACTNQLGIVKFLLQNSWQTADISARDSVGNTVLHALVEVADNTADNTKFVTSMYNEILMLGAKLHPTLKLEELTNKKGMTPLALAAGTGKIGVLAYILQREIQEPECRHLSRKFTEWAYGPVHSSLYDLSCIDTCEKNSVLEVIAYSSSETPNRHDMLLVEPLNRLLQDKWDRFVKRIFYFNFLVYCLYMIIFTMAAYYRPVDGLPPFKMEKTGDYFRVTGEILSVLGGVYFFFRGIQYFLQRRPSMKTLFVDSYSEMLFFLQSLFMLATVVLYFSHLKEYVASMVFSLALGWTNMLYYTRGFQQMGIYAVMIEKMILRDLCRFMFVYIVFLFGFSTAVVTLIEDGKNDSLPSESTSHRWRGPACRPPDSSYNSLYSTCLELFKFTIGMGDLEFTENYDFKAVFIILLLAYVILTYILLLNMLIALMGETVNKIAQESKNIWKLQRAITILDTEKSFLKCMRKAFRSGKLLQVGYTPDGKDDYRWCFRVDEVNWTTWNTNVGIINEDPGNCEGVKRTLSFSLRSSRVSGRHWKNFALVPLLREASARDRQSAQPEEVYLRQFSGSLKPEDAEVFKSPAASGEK

pIC50 | Structure (SMILES)
≥ 6.00 | OCc1cc(Nc2ccc(C(F)(F)F)cc2)c2ccc(-c3ncccc3C(F)(F)F)nc2n1 [Compound 5, {4-{[4-(trifluoromethyl)phenyl]amino}-7-[3-(trifluoromethyl)pyridin-2-yl]-1,8-naphthyridin-2-yl}methanol]
≥ 6.00 | COCc1cc(Nc2ccc(C(C)(C)C)cc2)c2ccc(-c3ncccc3C(F)(F)F)nc2n1 [Compound 3]
≥ 6.00 | COCc1cc(Nc2ccc(C(F)(F)F)cn2)c2ccc(-c3ncccc3C(F)(F)F)nc2n1 [Compound 14, 2-(methoxymethyl)-7-[3-(trifluoromethyl)pyridin-2-yl]-N-[5-(trifluoromethyl)pyridin-2-yl]-1,8-naphthyridin-4-amine]
≥ 6.00 | CCOc1cc(Nc2ccc(C(C)C)cc2)c2ccc(-c3ncccc3C(F)(F)F)nc2n1 [Compound 38, 2-ethoxy-N-(4-isopropylphenyl)-7-[3-(trifluoromethyl)pyridin-2-yl]-1,8-naphthyridin-4-amine]
≥ 6.00 | COCc1cc(Nc2ccc(S(=O)(=O)C(F)(F)F)cc2)c2ccc(-c3ncccc3C(F)(F)F)nc2n1 [Compound 15, 2-(methoxymethyl)-7-[3-(trifluoromethyl)pyridin-2-yl]-N-{4-[(trifluoromethyl)sulfonyl]phenyl}-1,8-naphthyridin-4-amine]
≥ 6.00 | FC(F)(F)c1cnc(Nc2ccnc3nc(-c4ncccc4Cl)ccc23)cn1 [Compound 138, 7-(3-chloropyridin-2-yl)-N-[5-(trifluoromethyl)pyrazin-2-yl]-1,8-naphthyridin-4-amine]
≥ 6.00 | CCCCNc1cc(Nc2ccc(C(C)(C)C)cc2)c2ccc(-c3ncccc3C(F)(F)F)cc2n1 [Compound 27, N~2~-butyl-N~4~-(4-tert-butylphenyl)-7-[3-(trifluoromethyl)pyridin-2-yl]quinoline-2,4-diamine]
≥ 6.00 | FC(F)(F)c1ccc(Nc2ccnc3nc(-c4ncccc4C(F)(F)F)ccc23)nc1 [Compound 106, 7-[3-(trifluoromethyl)pyridin-2-yl]-N-[5-(trifluoromethyl)pyridin-2-yl]-1,8-naphthyridin-4-amine]
≥ 6.00 | CN1CCCC(c2cc(Nc3ccc(C(F)(F)F)cn3)c3ccc(-c4ncccc4C(F)(F)F)nc3n2)C1 (centres unmarked) [Compound 124, 2-(1-methylpiperidin-3-yl)-7-[3-(trifluoromethyl)pyridin-2-yl]-N-[5-(trifluoromethyl)pyridin-2-yl]-1,8-naphthyridin-4-amine]
≥ 6.00 | CC(=O)c1ccc(Nc2cc(C(C)C)nc3nc(-c4ncccc4C(F)(F)F)ccc23)nc1 [Compound 116, 1-[6-({2-isopropyl-7-[3-(trifluoromethyl)pyridin-2-yl]-1,8-naphthyridin-4-yl}amino)pyridin-3-yl]ethanone]
≥ 6.00 | Cc1cc(Nc2ccc(C(F)(F)F)cc2)c2ccc(-c3ncccc3C(F)(F)F)cc2n1 [Compound 1, 2-methyl-N-[4-(trifluoromethyl)phenyl]-7-[3-(trifluoromethyl)pyridin-2-yl]quinolin-4-amine]
≥ 6.00 | Cc1cccnc1-c1ccc2c(Nc3ncc(C(F)(F)F)cn3)ccnc2n1 [Compound 137, 7-(3-methylpyridin-2-yl)-N-[5-(trifluoromethyl)pyrimidin-2-yl]-1,8-naphthyridin-4-amine]
≥ 6.00 | CCc1cc(Nc2ccc(C(C)=O)cn2)c2ccc(-c3ncccc3C(F)(F)F)nc2n1 [Compound 111, 1-[6-({2-ethyl-7-[3-(trifluoromethyl)pyridin-2-yl]-1,8-naphthyridin-4-yl}amino)pyridin-3-yl]ethanone]
≥ 6.00 | COCc1nc2nc(-c3ncccc3C(F)(F)F)ccc2c(Nc2ccc(C(F)(F)F)cc2)c1C(=O)OC [Compound 4, methyl 2-(methoxymethyl)-4-{[4-(trifluoromethyl)phenyl]amino}-7-[3-(trifluoromethyl)pyridin-2-yl]-1,8-naphthyridine-3-carboxylate]
≥ 6.00 | FC(F)(F)c1cnc(Nc2ccnc3nc(-c4ncccc4Cl)ccc23)nc1 [Compound 145, 7-(3-chloropyridin-2-yl)-N-[5-(trifluoromethyl)pyrimidin-2-yl]-1,8-naphthyridin-4-amine]
≥ 6.00 | CCOCc1cc(Nc2ccc(C(F)(F)F)cc2)c2ccc(-c3ncccc3C(F)(F)F)nc2n1 [Compound 40, 2-(ethoxymethyl)-N-[4-(trifluoromethyl)phenyl]-7-[3-(trifluoromethyl)pyridin-2-yl]-1,8-naphthyridin-4-amine]
≥ 6.00 | CC(C)CCOCc1cc(Nc2ccc(C(F)(F)F)cc2)c2ccc(-c3ncccc3C(F)(F)F)nc2n1 [Compound 42, 2-[(isopentyloxy)methyl]-N-[4-(trifluoromethyl)phenyl]-7-[3-(trifluoromethyl)pyridin-2-yl]-1,8-naphthyridin-4-amine]
≥ 6.00 | CCc1cc(Nc2ccc(C(F)(F)F)cn2)c2ccc(-c3ncccc3C(F)(F)F)nc2n1 [Compound 110, 2-ethyl-7-[3-(trifluoromethyl)pyridin-2-yl]-N-[5-(trifluoromethyl)pyridin-2-yl]-1,8-naphthyridin-4-amine]
≥ 6.00 | CC(C)c1cc(Nc2ccc(C(C)(C)O)cn2)c2ccc(-c3ncccc3C(F)(F)F)nc2n1 [Compound 118, 2-[6-({2-isopropyl-7-[3-(trifluoromethyl)pyridin-2-yl]-1,8-naphthyridin-4-yl}amino)pyridin-3-yl]propan-2-ol]
≥ 6.00 | CC(C)c1cc(Nc2ccc(Cl)cn2)c2ccc(-c3ncccc3C(F)(F)F)nc2n1 [Compound 105, N-(5-chloropyridin-2-yl)-2-isopropyl-7-[3-(trifluoromethyl)pyridin-2-yl]-1,8-naphthyridin-4-amine]
≥ 6.00 | CC(C)c1cc(Nc2ccc(C(F)(F)F)cn2)c2ccc(-c3ncccc3C(F)(F)F)nc2n1 [Compound 102, 2-isopropyl-7-[3-(trifluoromethyl)pyridin-2-yl]-N-[5-(trifluoromethyl)pyridin-2-yl]-1,8-naphthyridin-4-amine]
≥ 6.00 | FC(F)(F)c1ccc(Nc2ccnc3cc(-c4ncccc4C(F)(F)F)cnc23)nc1 [Compound 108, 7-[3-(trifluoromethyl)pyridin-2-yl]-N-[5-(trifluoromethyl)pyridin-2-yl]-1,5-naphthyridin-4-amine]

Structure (SMILES) | pIC50
CC(C)COCc1cc(Nc2ccc(C(C)(C)O)cn2)c2ccc(-c3ncccc3C(F)(F)F)nc2n1 [Compound 85, 2-[6-({2-(isobutoxymethyl)-7-[3-(trifluoromethyl)pyridin-2-yl]-1,8-naphthyridin-4-yl}amino)pyridin-3-yl]propan-2-ol] | ≥ 6.00
CC(C)COCc1cc(Nc2ccc(C(C)(C)O)cc2)c2ccc(-c3ncccc3Cl)nc2n1 [Compound 64, 2-(4-{[7-(3-chloropyridin-2-yl)-2-(isobutoxymethyl)-1,8-naphthyridin-4-yl]amino}phenyl)propan-2-ol] | ≥ 6.00
CC(C)COCc1cc(Nc2ccccn2)c2ccc(-c3ncccc3C(F)(F)F)nc2n1 [Compound 84, 2-(isobutoxymethyl)-N-pyridin-2-yl-7-[3-(trifluoromethyl)pyridin-2-yl]-1,8-naphthyridin-4-amine] | ≥ 6.00
CCCS(=O)(=O)c1ccc(Nc2cc(COCC(C)C)nc3nc(-c4ncccc4C(F)(F)F)ccc23)cc1 [Compound 73, 2-(isobutoxymethyl)-N-[4-(propylsulfonyl)phenyl]-7-[3-(trifluoromethyl)pyridin-2-yl]-1,8-naphthyridin-4-amine] | ≥ 6.00
